Measured values: patent US11192867B2, “Microbiocidal oxadiazole derivatives” (SYNGENTA PARTICIPATIONS AG, priority 2016, dated 2021)

Tests used:
[1] = system: Glomerella lagenarium (Colletotrichum lagenarium); test: Fungicidal activity against Glomerella lagenarium (Colletotrichum lagenarium) liquid culture / cucumber / preventative (anthracnose); assay type: cell-based; settings: Colletotrichum orbiculare, 72 h; 20 ppm in the applied formulation; liquid culture (PDB), growth inhibition measured photometrically 3 to 4 days after application; vs untreated control; read-out: disease control
Experimental: Mycelia fragments or conidia suspensions of a fungus prepared either freshly from liquid cultures of the fungus or from cryogenic storage, are directly mixed into nutrient broth. DMSO solutions of the test compound (max. 10 mg/ml) are diluted with 0.025% Tween20 by a factor of 50 and 10 μl of this solution is pipetted into a microtiter plate (96-well format). The nutrient broth containing the fungal spores/mycelia fragments is then added to give an end concentration of the tested compound. The test plates are incubated in the dark at 24° C. and 96% relative humidity. The inhibition of fungal growth is determined photometrically after 2 to 7 days, depending on the pathosystem, and percent antifungal activity relative to the untreated check is calculated.
Conidia of the fungus from cryogenic storage are directly mixed into nutrient broth (PDB—potato dextrose broth). After placing a (DMSO) solution of test compound into a microtiter plate (96-well format), the nutrient broth containing the fungal spores is added. The test plates are incubated at 24° C. and the inhibition of growth is measured photometrically 3 to 4 days after application.
The following compounds at 20 ppm in the applied formulation give at least 80% disease control in this test when compared to untreated control under the same conditions, which show extensive disease development.

[2] = system: Puccinia recondita f. sp. Tritici; test: Fungicidal activity against Puccinia recondita f. sp. Tritici / wheat / leaf disc curative (brown rust); assay type: in vivo; settings: foliar, 24 h, 200 ppm in the applied formulation, wheat leaf segments cv. Kanzler, applied 1 day after inoculation, vs untreated control, read-out: disease control
Experimental: (§1) Leaf disks or leaf segments of various plant species are cut from plants grown in a greenhouse. The cut leaf disks or segments are placed in multiwell plates (24-well format) onto water agar. The leaf disks are sprayed with a test solution before (preventative) or after (curative) inoculation. Compounds to be tested are prepared as DMSO solutions (max. 10 mg/ml) which are diluted to the appropriate concentration with 0.025% Tween20 just before spraying. The inoculated leaf disks or segments are incubated under defined conditions (temperature, relative humidity, light, etc.) according to the respective test system. A single evaluation of disease level is carried out 3 to 14 days after inoculation, depending on the pathosystem. Percent disease control relative to the untreated check leaf disks or segments is then calculated.
Wheat leaf segments cv. Kanzler are placed on agar in multiwell plates (24-well format). The leaf segments are then inoculated with a spore suspension of the fungus. Plates were stored in darkness at 19° C. and 75% relative humidity. The formulated test compound diluted in water was applied 1 day after inoculation. The leaf segments were incubated at 19° C. and 75% relative humidity under a light regime of 12 hours light/12 hours darkness in a climate cabinet and the activity of a compound was assessed as percent disease control compared to untreated when an appropriate level of disease damage appears in untreated check leaf segments (6 to 8 days after application).
The following compounds at 200 ppm in the applied formulation give at least 80% disease control in this test when compared to untreated control leaf disks under the same conditions, which show extensive disease development.

Phakopsora pachyrhizi = test: Fungicidal activity against Phakopsora pachyrhizi / soybean / leaf disc preventative (Asian soybean rust); assay type: in vivo; settings: foliar, 200 ppm in the applied formulation, soybean leaf disks, vs untreated control, read-out: disease control
Experimental: as §1, with “calculated. Soybean leaf disks are placed on water agar in multiwell plates (24-well format) and sprayed with the formulated test compound diluted in water. One day after application leaf discs are inoculated by spraying a spore suspension on the lower leaf surface. After an incubation period in a climate cabinet of 24-36 hours in darkness at 20° C. and 75% rh leaf disc are kept at 20° C. with 12 hours light/12 hours and 75% rh. The activity of a compound is assessed as percent disease control compared to untreated when an appropriate level of disease damage appears in untreated check leaf disks (12 to 14 days after application). The following compounds at 200 ppm in the applied formulation give at least 80% disease control in this test when compared to untreated control leaf disks under the same conditions, which show extensive disease development.” for “calculated.”

[3] = system: Puccinia recondita f. sp. Tritici; test: Fungicidal activity against Puccinia recondita f. sp. Tritici / wheat / leaf disc preventative (brown rust); assay type: in vivo; settings: foliar, 200 ppm in the applied formulation, wheat leaf segments cv. Kanzler, inoculated 1 day after application, vs untreated control, read-out: disease control
Experimental: as §1, with “calculated. Wheat leaf segments cv. Kanzler were placed on agar in multiwell plates (24-well format) and sprayed with the formulated test compound diluted in water. The leaf disks were inoculated with a spore suspension of the fungus 1 day after application. The inoculated leaf segments were incubated at 19° C. and 75% relative humidity (rh) under a light regime of 12 hours light/12 hours darkness in a climate cabinet and the activity of a compound was assessed as percent disease control compared to untreated when an appropriate level of disease damage appears in untreated check leaf segments (7 to 9 days after application). The following compounds at 200 ppm in the applied formulation give at least 80% disease control in this test when compared to untreated control leaf disks under the same conditions, which show extensive disease development.” for “calculated.”

Structure (SMILES)	inhibition of growth at 20 ppm [1]	pest or weed control at 200 ppm [2]	pest or weed control at 200 ppm (Phakopsora pachyrhizi)	pest or weed control at 200 ppm [3]
CON=CC(C)(C)NC(=O)c1ccc(-c2noc(C(F)(F)F)n2)cc1 [Compound 1.1, N-(2-methoxyimino-1,1-dimethyl-ethyl)-4-[5-(trifluoromethyl)-1,2,4-oxadiazol-3-yl]benzamide]	≥ 80%	≥ 80%	–	–
CON=CC(C)(C)NC(=O)c1ccc(-c2noc(C(F)(F)F)n2)cc1F [Compound 1.2, 2-fluoro-N-(2-methoxyimino-1,1-dimethyl-ethyl)-4-[5-(trifluoromethyl)-1,2,4-oxadiazol-3-yl]benzamide]	≥ 80%	≥ 80%	≥ 80%	–
CC(C=NOCc1ccc([N+](=O)[O-])cc1)NC(=O)c1ccc(-c2noc(C(F)(F)F)n2)cc1 (stereo not shown) [Compound 1.16, N-[1-methyl-2-[(4-nitrophenyl)methoxyimino]ethyl]-4-[5-(trifluoromethyl)-1,2,4-oxadiazol-3-yl]benzamide]	–	≥ 80%	≥ 80%	–
COc1cccc(CON=CC(C)NC(=O)c2ccc(-c3noc(C(F)(F)F)n3)cc2)c1 (stereo not shown) [Compound 1.17, N-[2-[(3-methoxyphenyl)methoxyimino]-1-methyl-ethyl]-4-[5-(trifluoromethyl)-1,2,4-oxadiazol-3-yl]benzamide]	≥ 80%	≥ 80%	≥ 80%	–
Cc1ccc(CON=CC(C)NC(=O)c2ccc(-c3noc(C(F)(F)F)n3)cc2)cc1 (stereo not shown) [Compound 1.18, N-[1-methyl-2-(p-tolylmethoxyimino)ethyl]-4-[5-(trifluoromethyl)-1,2,4-oxadiazol-3-yl]benzamide]	–	≥ 80%	–	–
COc1ccc(CON=CC(C)NC(=O)c2ccc(-c3noc(C(F)(F)F)n3)cc2)cc1 (stereo not shown) [Compound 1.19, N-[2-[(4-methoxyphenyl)methoxyimino]-1-methyl-ethyl]-4-[5-(trifluoromethyl)-1,2,4-oxadiazol-3-yl]benzamide]	–	≥ 80%	≥ 80%	–
CC(C=NOCC(=O)O)NC(=O)c1ccc(-c2noc(C(F)(F)F)n2)cc1 (stereo not shown) [Compound 1.20, 2-[2-[[4-[5-(trifluoromethyl)-1,2,4-oxadiazol-3-yl]benzoyl]amino]propylidene-amino] oxyacetic acid]	≥ 80%	≥ 80%	–	≥ 80%
CC(C=NO[C@H](C)C(=O)O)NC(=O)c1ccc(-c2noc(C(F)(F)F)n2)cc1 (stereo partly drawn) [Compound 1.29, (2R)-2-[2-[[4-[5-(trifluoromethyl)-1,2,4-oxadiazol-3-yl]benzoyl]amino]propylideneamino] oxypropanoic acid]	≥ 80%	≥ 80%	–	≥ 80%
O=C(NCC=NOCc1ccccc1)c1ccc(-c2noc(C(F)(F)F)n2)cc1 [Compound 1.90, N-(2-benzyloxyimino-ethyl)-4-[5-(trifluoromethyl)-1,2,4-oxadiazol-3-yl]benzamide]	≥ 80%	–	≥ 80%	≥ 80%
O=C(O)Cc1ccccc1CON=CCNC(=O)c1ccc(-c2noc(C(F)(F)F)n2)cc1 [Compound 1.92, 2-[2-[[2-[[4-[5-(trifluoromethyl)-1,2,4-oxadiazol-3-yl]benzoyl]amino]ethylideneamino]oxymethyl]phenyl] acetic acid]	≥ 80%	–	≥ 80%	≥ 80%
CC(CNC(=O)c1ccc(-c2noc(C(F)(F)F)n2)cc1)=NOCC=CCl [Compound 1.121, N-[2-(3-chloroallyloxy-imino)propyl]-4-[5-(trifluoromethyl)-1,2,4-oxadiazol-3-yl]benzamide]	≥ 80%	–	≥ 80%	≥ 80%
CC(CNC(=O)c1ccc(-c2noc(C(F)(F)F)n2)cc1)=NOCC=C(Cl)Cl [Compound 1.122, N-[2-(3,3-dichloroallyloxy-imino)propyl]-4-[5-(trifluoromethyl)-1,2,4-oxadiazol-3-yl]benzamide]	≥ 80%	–	≥ 80%	≥ 80%
CC(C)=CCON=C(C)CNC(=O)c1ccc(-c2noc(C(F)(F)F)n2)cc1 [Compound 1.123, N-[2-(3-methylbut-2-enoxyimino)propyl]-4-[5-(trifluoromethyl)-1,2,4-oxadiazol-3-yl]benzamide]	≥ 80%	–	≥ 80%	≥ 80%
CC(CNC(=O)c1ccc(-c2noc(C(F)(F)F)n2)cc1)=NOC/C=C\Cl [Compound 1.124, N-[2-[(Z)-3-chloroallyloxy]iminopropyl]-4-[5-(trifluoromethyl)-1,2,4-oxadiazol-3-yl]benzamide]	≥ 80%	–	≥ 80%	≥ 80%
CC(CNC(=O)c1ccc(-c2noc(C(F)(F)F)n2)cc1)=NOC(C)(C)C [Compound 1.132, N-(2-tert-butoxyiminopropyl)-4-[5-(trifluoromethyl)-1,2,4-oxadiazol-3-yl]benzamide]	≥ 80%	–	≥ 80%	≥ 80%
CC(CNC(=O)c1ccc(-c2noc(C(F)(F)F)n2)cc1)=NOCC(F)(F)F [Compound 1.139, N-[2-(2,2,2-trifluoroethoxy-imino)propyl]-4-[5-(trifluoromethyl)-1,2,4-oxadiazol-3-yl]benzamide]	≥ 80%	–	≥ 80%	≥ 80%
C=C(Cl)CON=C(C)CNC(=O)c1ccc(-c2noc(C(F)(F)F)n2)cc1 [Compound 1.144, N-[2-(2-chloroallyloxy-imino)propyl]-4-[5-(trifluoromethyl)-1,2,4-oxadiazol-3-yl]benzamide]	≥ 80%	–	≥ 80%	≥ 80%
